Laboratory results from publication PMC11579541, “In vitro, in vivo, and in silico approaches for evaluating the preclinical DMPK profiles of ammoxetine, a novel chiral serotonin and norepinephrine reuptake inhibitor” (Frontiers in Pharmacology, 2024).
Like-named read-outs stand apart in the source and are kept apart here.

Experiment: PK studies in beagle dogs
Type: in vivo
Details: for AUC(0-inf) / AUC(0-t) / MRT last / MRT inf / Tmax / half-life / Cmax / CL/F / Vd/F: beagle; for MRT last: read-out: MRT(0-t); for MRT inf: read-out: MRT(0-∞); for half-life: read-out: t1/2z (converted); for CL/F: read-out: CLz/F (converted); for Vd/F: read-out: Vz/F
Procedure: For the PK studies in rats and dogs, a total of 18 SD rats and 15 male beagle dogs were randomly divided into three groups, with six rats or five dogs per group, respectively. Prior to the experiments, all animals underwent a 12-h fasting period, while having free access to water. The animals were administered single oral doses of ammoxetine in three different dose levels: 8 mg/kg, 20 mg/kg, and 50 mg/kg for rats, and 2 mg/kg, 5 mg/kg, and 12.5 mg/kg for dogs, representing low, medium, and high doses. Serial blood samples were collected from the rats at 0, 2, 5, 15, and 30 min, as well as 1, 2, 4, 6, 8, 12, and 24 h post-dosing. For the dogs, blood samples were collected at 0, 5, 15, 30, and 45 min, as well as 1, 2, 4, 6, 8, 12, and 24 h post-dosing. Approximately 0.3 mL of blood was collected from the rats, while 2 mL of blood was collected from the dogs. The blood samples were collected into heparinized tubes. Following centrifugation, plasma samples were obtained and stored at −30°C until further analysis.
For the absolute bioavailability (F, %) study in dogs, the dogs initially received a single gastric gavage of a low dose (2 mg/kg) of ammoxetine, followed by a 1-week washout period. After the washout, the same dose of ammoxetine was administered intravenously (i.v.). To assess the effects of nonfasting on ammoxetine PK, dogs that received a medium dose (5 mg/kg) of ammoxetine via gastric gavage underwent a radical washout period of 1 week. Subsequently, they were administered the same dose of ammoxetine via gastric gavage under nonfasting conditions. To compare sex differences in ammoxetine PK, an additional five female beagle dogs were administered a medium dose (5 mg/kg) of ammoxetine via gastric gavage after a 12-h overnight fast. Blood samples (2 mL) were collected from these dogs into heparinized tubes at predose and at specified time points: 5, 15, 30, and 45 min, as well as 1, 2, 4, 6, 8, 12, and 24 h postdose. For the repeat-dose study, after completing blood collection during the initial administration, dogs receiving a single gastric gavage of a medium dose (5 mg/kg) of ammoxetine under fasting conditions were subsequently orally dosed with seven repeat doses of ammoxetine (5 mg/kg) every 12 h. Trough blood samples were collected before the fourth to last administration to ensure steady-state blood concentrations (C ss ) were achieved. Approximately 2 mL of blood was collected at specified time points after the last dose and transferred into heparinized tubes. All blood samples were then centrifuged at 4,000 r/min for 20 min to obtain plasma samples, which were stored at −30°C until analysis.
To determine the concentration of ammoxetine, 100 μL of L-phencynonate (IS, 50 ng/mL) and 300 μL of methanol were added to 100 μL of plasma samples from rats or dogs. After thorough vortexing, the mixture was centrifuged at 13,800×g for 10 min. The supernatants were then subjected to analysis using LC-MS-MS methods. PK parameters were calculated using DAS (Drug And Statistics for Windows) version 2.0, developed by the Shanghai University of Traditional Chinese Medicine, Shanghai, China. The F was determined by comparing the plasma area under the concentration-time curve (AUC) values after oral (p.o.) and intravenous (i.v.) administration of ammoxetine. F was calculated using the formula: F=AUCp.o./AUCi.v.×100% . Statistical analyses were performed using OriginPro 8.6 software. Paired sample or student’s t-test, as well as one-way ANOVA, were employed to compare the means of two or three groups, with a significance level set at p < 0.05.

[1] = beagle dogs, 2 mg/kg p.o. vs i.v.
[2] = beagle dogs, 5 mg/kg oral every 12 h, last time of multiple administrations
[3] = dog, plasma, po, 5 mg/kg, beagle dogs, 5 mg/kg oral every 12 h, last time of multiple administrations
[4] = female, dog, plasma, po, 5 mg/kg, female beagle dogs, 5 mg/kg oral, fasted
[5] = male, dog, plasma, iv, 2 mg/kg, beagle dogs, 2 mg/kg intravenous administration
[6] = male, dog, plasma, po, 2 mg/kg, beagle dogs, 2 mg/kg single oral dose
[7] = male, dog, plasma, po, 5 mg/kg, beagle dogs, 5 mg/kg oral every 12 h, last time of multiple administrations
[8] = male, dog, plasma, po, 5 mg/kg, beagle dogs, 5 mg/kg oral, fed (nonfasting)
[9] = male, dog, plasma, po, 5 mg/kg, male beagle dogs, 5 mg/kg single oral dose, fasted (first dose)
[10] = male, dog, plasma, po, 12.5 mg/kg, beagle dogs, 12.5 mg/kg single oral dose

F (absolute bioavailability) based on AUC(0-t) [1]: 41.76 ± 9.25%
F (absolute bioavailability) based on AUC(0-∞) [1]: 41.94 ± 9.31%
trough concentration (beagle dogs, 5 mg/kg oral every 12 h, before the 4th dose): 84.17 ± 50.58 ng/mL
trough concentration (beagle dogs, 5 mg/kg oral every 12 h, before the 5th dose): 64.21 ± 31.71 ng/mL
trough concentration (beagle dogs, 5 mg/kg oral every 12 h, before the 6th dose): 86.13 ± 43.95 ng/mL
trough concentration (beagle dogs, 5 mg/kg oral every 12 h, before the 7th dose): 95.71 ± 39.83 ng/mL
Cav [2]: 337.19 ± 112.27 ng/mL
Cmin [2]: 95.71 ± 39.83 ng/mL
DF (degree of fluctuation) [2]: 2.00 ± 0.45
AUC(0-inf) [3]: 5000 ng·h/mL
AUC(0-t) [3]: 4900 ng·h/mL
MRT last [3]: 5.76 ± 0.6 h
MRT inf [3]: 6.21 ± 0.73 h
Tmax (dog, plasma, po, 5 mg/kg, beagle dogs, 5 mg/kg oral every 12 h, last time of multiple administrations, read-out: Tmax): 1.1 ± 0.52 h
half-life [3]: 4.13 ± 0.85 h
AUC (dog, plasma, beagle dogs, 5 mg/kg oral every 12 h, last time of multiple administrations): 4050 ng·h/mL
AUC(0-inf) [4]: 1660 ng·h/mL
AUC(0-t) [4]: 1640 ng·h/mL
Cmax [4]: 476 ± 284 ng/mL
CL/F [4]: 71.5 mL/min/kg
MRT last [4]: 3.74 ± 0.78 h
MRT inf [4]: 3.88 ± 0.83 h
Tmax (female, dog, plasma, po, 5 mg/kg, female beagle dogs, 5 mg/kg oral, fasted, read-out: Tmax): 0.85 ± 0.22 h
Vd/F [4]: 20.9 ± 12.3 L/kg
half-life [4]: 3.45 ± 0.4 h
AUC(0-inf) [5]: 1010 ng·h/mL
AUC(0-t) [5]: 1010 ng·h/mL
Cmax [5]: 649 ± 119 ng/mL
MRT last [5]: 2.3 ± 0.29 h
MRT inf [5]: 2.33 ± 0.29 h
Tmax (male, dog, plasma, iv, 2 mg/kg, beagle dogs, 2 mg/kg intravenous administration, read-out: Tmax): 0.05 ± 0.03 h
half-life [5]: 2.72 ± 0.51 h
AUC(0-inf) [6]: 420 ± 108 ng·h/mL
AUC(0-t) [6]: 418 ± 108 ng·h/mL
Cmax [6]: 165 ± 49.5 ng/mL
CL/F [6]: 83.5 mL/min/kg
MRT last [6]: 2.94 ± 0.55 h
MRT inf [6]: 3.08 ± 0.69 h
Tmax (male, dog, plasma, po, 2 mg/kg, beagle dogs, 2 mg/kg single oral dose, read-out: Tmax): 0.75 ± 0.18 h
Vd/F [6]: 24.9 ± 13 L/kg
half-life [6]: 3.4 ± 1.28 h
Cmax [7]: 761 ± 254 ng/mL
CL/F [7]: 18.7 mL/min/kg
Vd/F [7]: 6.63 ± 2.77 L/kg
AUC(0-inf) [8]: 1960 ± 742 ng·h/mL
AUC(0-t) [8]: 1950 ± 738 ng·h/mL
Cmax [8]: 522 ± 234 ng/mL
CL/F [8]: 49.3 mL/min/kg
MRT last [8]: 4.14 ± 0.54 h
MRT inf [8]: 4.28 ± 0.59 h
Tmax (male, dog, plasma, po, 5 mg/kg, beagle dogs, 5 mg/kg oral, fed (nonfasting), read-out: Tmax): 0.8 ± 0.21 h
Vd/F [8]: 14 ± 6.8 L/kg
half-life [8]: 3.28 ± 0.28 h
AUC(0-inf) [9]: 1980 ± 533 ng·h/mL
AUC(0-t) [9]: 1960 ± 527 ng·h/mL
Cmax [9]: 524 ± 214 ng/mL
CL/F [9]: 45.2 mL/min/kg
MRT last [9]: 4.4 ± 0.65 h
MRT inf [9]: 4.7 ± 0.85 h
Tmax (male, dog, plasma, po, 5 mg/kg, male beagle dogs, 5 mg/kg single oral dose, fasted (first dose), read-out: Tmax): 0.8 ± 0.11 h
Vd/F [9]: 14.9 ± 5.08 L/kg
half-life [9]: 3.81 ± 0.52 h
AUC(0-inf) [10]: 8400 ng·h/mL
AUC(0-t) [10]: 7900 ng·h/mL
Cmax [10]: 1470 ng/mL
CL/F [10]: 25.8 mL/min/kg
MRT last [10]: 5.43 ± 1.18 h
MRT inf [10]: 7.53 ± 4.7 h
Tmax (male, dog, plasma, po, 12.5 mg/kg, beagle dogs, 12.5 mg/kg single oral dose, read-out: Tmax): 1.4 ± 0.6 h
Vd/F [10]: 13.9 ± 11 L/kg
half-life [10]: 6.2 ± 4.43 h
Tmax (male, dog, plasma, po, 12.5 mg/kg, beagle dogs, oral 2, 5 and 12.5 mg/kg, read-out: Tmax values, range): 0.75 to 1.4 h
bioavailability (male, dog, plasma, oral, beagle dogs, 2 mg/kg, approximate value, read-out: absolute bioavailability): ~42%
clearance (male, dog, plasma, beagle dogs, 2 mg/kg intravenous administration, total clearance, read-out: CLz (converted)): 34 mL/min/kg
Vd (male, dog, plasma, beagle dogs, 2 mg/kg intravenous administration, volume of distribution, read-out: Vz): 7.82 ± 1.2 L/kg
SMILES: CNCC[C@H](Oc1cccc2c1OCO2)c1cccs1 [ammoxetine]
